In patent publication US12060356B2, “7 (methylamino)pyrazolo[1,5-a]pyrimidine-3-carboxamide derivatives” (Eli Lilly and Company, priority 2018, dated 2024) one finds IC50 data, which are given here for two compounds.

Assay [1] has as its system IFNα signaling through pSTAT1 in TF1 cells. Put plainly: Inhibition of IFNα Signaling Through pSTAT1 in TF1 Cells. It counts as cell-based. The conditions noted are these: Homo sapiens, TF-1, 1 hr preincubation, 10 ng/mL IFNα2 for 20 minutes, p-Stat1 (Tyr701) AlphaLISA, GeoMetric mean (SEM, n). Here is the method: TF1 cells (ATCC, CL-2003) are grown in RPMI 1640 (GIBCO) supplemented with 10% dialyzed FBS, 0.1 mg/mL Ampicillin and 2 ng/mL granulocyte macrophage colony stimulating factor. TF1 cells (100 K per well) are seeded in a 96-well poly-D-lysine coated plates in serum-free DMEM and incubated overnight at 37° C. under 5% CO2. Example 1 is serially diluted in DMSO, added to the cells, and incubated at 37° C. for 1 hr. Cells are then stimulated with 10 ng/mL IFNα2 at 37° C. for 20 minutes. After removing the medium, the cells are lysed in buffer containing Halt protease and phosphatase inhibitor cocktail (Thermo Scientific #78441) at room temperature for 30 minutes. The amount of p-Stat1 (Tyr701) is quantified as light emission at 615 nm using the AlphaLISA SureFire Ultra p-Stat1 (Tyr701) assay kit (Perkin Elmer #ALSU-PST1-A50K) following the vendor's recommended protocol. Percent inhibition at each inhibitor concentration is calculated and fit to the four parameter nonlinear logistic equation using Genedata Screener® to give an IC50 for the compound of Example 1 of 0.007 μM (0.002 μM, n=4) and for the compound of Example 2 of 0.100 μM (0.014 μM, n=4) expressed as GeoMetric means with the standard error of the mean (SEM).
Background: Alpha assays give light when donor and acceptor beads are brought close together.

Assay [2] has as its system IL-23 signaling (STAT3 phosphorylation) in Kit225 cells. Put plainly: IL23 pSTAT3 AlphaLISA Assay. The class given is cell-based. The note with it: 1 hour preincubation, IL23 25 ng/mL for 30 minutes, GeoMetric mean (SEM, n), read-out: relative IC50. On the procedure: IL2-dependent Kit225 cells (University of Texas MD Anderson Cancer Center) expressing endogenous IL23 receptors are stably transduced with the Lenti STAT3 Reporter linked to firefly luciferase (SABiosciences CLS-6028L). These cells are used to monitor TYK2 activity by quantifying gene expression caused by STAT3 phosporylation following induction by IL23 in the presence of IL2 using AlphaLISA technology (TGR Biosciences ALSU-TST3-A50K). The cells are grown in RPMI 1640 (Gibco 22400) supplemented with 10% FBS (Invitrogen 10082), 1× Pen/Strep (Gibco 15140-122), 200 ng/ml Puromycin (Sigma P9620), and fresh 10 ng/ml recombinant human IL2 (R&D Systems 202-IL-50).
For assay preparation, cells are dispensed into Biocoat black poly-d-lysine coated clear bottom 384-well plates (Becton Dickinson Bio-Coat 35-4640) in DMEM (Sigma D5796) at 300,000 cells/well and allowed to incubate overnight at 37° C. Compounds solubilized in DMSO are serially diluted 1:3 to produce a 10-point concentration response curve (final DMSO=0.1%). Cells are pre-incubated with Example 1 for 1 hour at 37° C., then stimulated with IL23 (25 ng/mL final) for 30 minutes. […] The AlphaLISA reaction is performed following the vendor's recommended protocol, and the […] are measured using an Envision plate reader (Perkin Elmer).

The target in assay [3] is T1, pseudokinase domain (JH2) of human TYK2 (Homo sapiens, UniProt P29597).
T1 construct: The pseudokinase domain (JH2) of human JAK; made in house
Put plainly: TYK2-JH2 Tracer Binding Assay. The note with it: His-tagged TYK2-JH2 0.200 nM, Tracer 2.00 nM, TR-FRET, 30 minutes at room temperature. An excerpt: The pseudokinase domain (JH2) of human JAK (Janus family of cytoplasmic tyrosine kinases) family tyrosine kinase 2 (TYK2) (Genbank NP_003322) with an N-terminal His6 tag is expressed in baculovirus and purified by HisPur Ni-NTA affinity and Superdex 200 size-exclusion chromatography. The compound prepared in Preparation 17, a conjugate of Alexa Fluor 647 dye (Thermo Fisher Scientific) and a suitable TYK2 JH2 binder, is referred to herein as “the Tracer”. A 3 fold, 10 point serial dilution of compound, Example 1 and Example 2, are prepared in 100% DMSO and 50 nL/well transferred to a Proxiplate-384F white plate (PerkinElmer 6008280) using acoustic liquid handling. Control wells used to determine percent inhibition contained 100% DMSO (50 nL) and either assay buffer containing the Tracer (2.00 nM final concentration) (min, low FRET) or diluted TYK2-JH2 enzyme (0.200 nM final concentration) and the Tracer (2.00 nM final concentration) (max, high FRET). […] After 30 minutes, the plate is counted on a PerkinElmer Envision with the following settings: Excitation (340 nm), Tracer Emission (665 nm) and LanthaScreen Eu-anti-His Antibody Emission (615 nm). The ratio of Tracer Emission (665 nm) over LanthaScreen Eu-anti-His Antibody Emission (615 nm) is determined.

The structures appear in SMILES notation.

T1 sequence (P29597 589-875 limits assumed): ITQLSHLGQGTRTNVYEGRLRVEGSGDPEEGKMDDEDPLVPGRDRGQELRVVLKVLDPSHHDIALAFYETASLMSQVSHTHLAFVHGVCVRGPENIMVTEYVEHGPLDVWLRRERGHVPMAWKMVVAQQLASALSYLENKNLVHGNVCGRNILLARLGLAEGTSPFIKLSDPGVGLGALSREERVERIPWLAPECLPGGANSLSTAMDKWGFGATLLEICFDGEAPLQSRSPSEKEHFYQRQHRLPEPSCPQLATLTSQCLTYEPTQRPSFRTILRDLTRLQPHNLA

In the case of `CNc1cc(Nc2cccc3c2OCCC3)nc2c(C(=O)N[C@@H]3CCN(C)C3=O)cnn12` [Example 1, 5-(Chroman-8-ylamino)-7-(methylamino)-N-[(3R)-1-methyl-2-oxo-pyrrolidin-3-yl]pyrazolo[1,5-a]pyrimidine-3-carboxamide], the values for the half-maximal inhibitory concentration (IC50) in assay [1], in assay [2] and in assay [3] were 7 nM, 7 nM and less than 0.254 nM, respectively.

As to `CNc1cc(Nc2cccc(C)n2)nc2c(C(=O)N[C@@H]3CCN(C)C3=O)cnn12` [Example 2, 7-(Methylamino)-N-[(3R)-1-methyl-2-oxo-pyrrolidin-3-yl]-5-[(6-methyl-2-pyridyl)amino]pyrazolo[1,5-a]pyrimidine-3-carboxamide], the IC50 (usually the midpoint of a concentration-inhibition curve) is 100 nM in assay [1], 66 nM in assay [2] and less than 0.254 nM in assay [3].
